According to patent US10071964B2, “Disubstituted piperidines as butyrylcholinesterase inhibitors” (priority 2015, dated 2018):

What was measured:
[1] = molecular target: T1, murine acetylcholinesterase (mAChE) (Mus musculus, UniProt P21836); assay: Ellman's method enzyme assay, mAChE inhibition; format: biochemical; settings: for % inhibition at 10 μM mAChE: 10 μM compound, n.i. = no inhibition
T1 sequence (P21836 32-614): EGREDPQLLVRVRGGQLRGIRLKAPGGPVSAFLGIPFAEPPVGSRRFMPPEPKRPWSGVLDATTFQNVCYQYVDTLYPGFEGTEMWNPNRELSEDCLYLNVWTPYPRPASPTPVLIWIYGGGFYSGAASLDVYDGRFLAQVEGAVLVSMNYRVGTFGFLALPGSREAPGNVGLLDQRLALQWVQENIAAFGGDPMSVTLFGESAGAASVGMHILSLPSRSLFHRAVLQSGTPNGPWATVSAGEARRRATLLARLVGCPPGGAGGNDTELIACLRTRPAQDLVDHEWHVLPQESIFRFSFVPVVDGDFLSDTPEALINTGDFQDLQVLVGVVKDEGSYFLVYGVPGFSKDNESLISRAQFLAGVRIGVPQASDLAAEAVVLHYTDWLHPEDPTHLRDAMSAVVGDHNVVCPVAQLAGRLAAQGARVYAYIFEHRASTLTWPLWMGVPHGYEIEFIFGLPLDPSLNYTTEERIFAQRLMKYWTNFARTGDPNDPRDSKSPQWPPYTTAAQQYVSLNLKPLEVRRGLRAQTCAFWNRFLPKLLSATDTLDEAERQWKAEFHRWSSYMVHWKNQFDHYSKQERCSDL
From the text: (§1) Ellman's method was used to evaluate the inhibitory activities of the synthesized compounds against the cholinesterases. […] As a substrate butyrylthiocholine (BTC) and acetylthiocholine (ATC) iodides were used for BChE and AChE, respectively. […] For the reference sample, 1% dimethylsulfoxide (DMSO) replaced the inhibitor's solution.
(§2) Potency of the inhibitor is expressed as a residual activity (RA) of the enzyme at the employed inhibitor's concentration, half maximal inhibitory concentration (IC50 value) and as an inhibition constant (Ki).
(§3) The enzyme reactions were carried out using murine acetylcholinesterase (mAChE) and human recombinant butyrylcholinesterase (huBChE). From the lyophilised powders of both enzymes, the solutions were obtained by dissolution of the powders in 10 mM MES buffer (pH 6.5) to reach the concentration of 4 mg/mL. The concentrated enzyme solution was diluted prior use in 100 mM phosphate buffer (pH 8.0) to reach the activity of the enzyme in the assay of approximately 500 mAu per minute.
(§4) ATCI in BTCI solutions were prepared in 100 mM phosphate buffer (pH 8.0) to reach the final concentration in the assay of 500 μM.
Stock solutions of compounds were prepared in DMSO in a concentration of 10 mM.
(§5) Enzyme solutions were prepared by dilution of the concentrated stocks in the 100 mM phosphate buffer (pH 8.0). […] Enzyme reaction was started with the addition of the substrate. The DMSO concentration in the test solution was always 1%. […] For the determination of blank (b) the phosphate buffer replaced the enzyme solution. Initial velocity of the enzyme reaction (v0) was determined from the linear curve of the enzyme reaction product formation, where each measurement was performed in triplicate. For the initial screening of inhibition ability, […] concentration of the investigated compounds was used. Compounds were pipetted in the corresponding wells to reach the final concentration of 10 μM. Tested compound and the enzyme solution were first preincubated for 300s, followed by the substrate addition, which triggered the enzyme reaction. The initial velocity in presence of the inhibitor was further calculated (vi). The inhibition capability was expressed as residual activity (RA=(vi−b)/(vo−b)).
(§6) IC50 values were determined by plotting the RA versus the concentration of the investigated compound.
(§7) Where X is a common logarithm of the concentration of the inhibitor and Y is the residual activity. For solving the equation Gnuplot software and an in-house python script were used. For the determination of the inhibition constant full progress curves of the product formation in presence and absence of investigated compounds were monitored. The curves were submitted in the ENZO web-application, which allows solving of numerical equations.

[2] = molecular target: human recombinant butyrylcholinesterase (huBChE) (Homo sapiens, UniProt P06276); assay: biochemical; settings: read-out: IC50 ± STD (μM) huBChE
Chain of human recombinant butyrylcholinesterase (huBChE) (P06276 29-602): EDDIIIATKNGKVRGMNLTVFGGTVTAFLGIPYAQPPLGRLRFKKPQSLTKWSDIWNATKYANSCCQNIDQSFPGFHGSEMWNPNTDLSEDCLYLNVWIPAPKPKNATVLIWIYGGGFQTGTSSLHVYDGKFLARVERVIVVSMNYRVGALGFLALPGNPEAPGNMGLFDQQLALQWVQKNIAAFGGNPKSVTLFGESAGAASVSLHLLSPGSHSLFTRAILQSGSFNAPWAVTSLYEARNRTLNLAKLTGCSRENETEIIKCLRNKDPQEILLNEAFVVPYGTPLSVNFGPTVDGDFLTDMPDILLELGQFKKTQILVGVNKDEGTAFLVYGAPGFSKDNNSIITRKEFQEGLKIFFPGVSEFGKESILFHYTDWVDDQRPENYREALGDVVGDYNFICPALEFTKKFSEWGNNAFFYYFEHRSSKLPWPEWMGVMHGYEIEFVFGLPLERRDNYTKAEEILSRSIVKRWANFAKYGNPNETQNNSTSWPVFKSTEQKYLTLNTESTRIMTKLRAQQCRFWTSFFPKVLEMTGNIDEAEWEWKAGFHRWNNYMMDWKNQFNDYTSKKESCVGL
From the text: as §1, §2, §3, §4, §5, §6, §7

## CN(C)CCN(CC1CCCN(C2Cc3ccccc3C2)C1)C(=O)c1ccc2ccccc2c1 (stereo not drawn)
[1]; read-out: % inhibition ± STD at 10 μM inhibitor mAChE, Table 1, formula (I), 10 μM inhibitor
  inhibition at 10 µM: 17.4 ± 3.7%

## COCCN(CC1CCCN(C2Cc3ccccc3C2)C1)S(=O)(=O)c1ccc2ccccc2c1 (stereo not drawn)
[1]; Table 2, formula (II)
  % inhibition at 10 μM mAChE: 72 ± 0.86%

## COCCN(CC1CCCN(C2Cc3ccccc3C2)C1)S(=O)(=O)c1ccccc1 (stereo not drawn)
[2]
  IC50: 0.343 ± 0.005 µM
[1]; Table 2, formula (II)
  % inhibition at 10 μM mAChE: n.i.

## COCCN(CC1CCCN(C2Cc3ccccc3C2)C1)S(=O)(=O)c1ccc(C)cc1 (stereo not drawn)
[2]
  IC50: 0.279 ± 0.008 µM
[1]; Table 2, formula (II)
  % inhibition at 10 μM mAChE: n.i.

## COCCN(CC1CCCN(C2Cc3ccccc3C2)C1)S(=O)(=O)c1ccc(F)cc1 (stereo not drawn)
[2]
  IC50: 0.887 ± 0.08 µM
[1]; Table 2, formula (II)
  % inhibition at 10 μM mAChE: n.i.

## COCCN(CC1CCCN(C2Cc3ccccc3C2)C1)S(=O)(=O)c1ccc(OC)cc1 (stereo not drawn)
[2]
  IC50: 0.482 ± 0.066 µM
[1]; Table 2, formula (II)
  % inhibition at 10 μM mAChE: n.i.

## COCCN(CC1CCCN(C2Cc3ccccc3C2)C1)S(=O)(=O)c1ccc([N+](=O)[O-])cc1 (stereo not drawn)
[2]
  IC50: 3.47 ± 0.052 µM
[1]; Table 2, formula (II)
  % inhibition at 10 μM mAChE: n.i.

## COCCN(CC1CCCN(C2Cc3ccccc3C2)C1)S(=O)(=O)c1ccc(N)cc1 (stereo not drawn)
[2]
  IC50: 0.314 ± 0.036 µM
[1]; Table 2, formula (II)
  % inhibition at 10 μM mAChE: n.i.

## COCCN(CC1CCCN(C2Cc3ccccc3C2)C1)S(=O)(=O)c1ccc(NC(C)=O)cc1 (stereo not drawn)
[2]
  IC50: 0.321 ± 0.035 µM
[1]; Table 2, formula (II)
  % inhibition at 10 μM mAChE: n.i.

## COCCN(CC1CCCN(C2Cc3ccccc3C2)C1)S(=O)(=O)c1cccc([N+](=O)[O-])c1 (stereo not drawn)
[2]
  IC50: 3.61 ± 0.528 µM

## COCCN(CC1CCCN(C2Cc3ccccc3C2)C1)S(=O)(=O)c1cccc(N)c1 (stereo not drawn)
[1]; Table 2, formula (II)
  % inhibition at 10 μM mAChE: n.i.

## COCCN(CC1CCCN(C2Cc3ccccc3C2)C1)S(=O)(=O)c1cccc(NC(C)=O)c1 (stereo not drawn)
[2]
  IC50: 8.21 ± 0.601 µM
[1]; Table 2, formula (II)
  % inhibition at 10 μM mAChE: n.i.

## COCCN(CC1CCCN(C2Cc3ccccc3C2)C1)S(=O)(=O)c1ccccc1C(=O)OC (stereo not drawn)
[2]
  IC50: 0.359 ± 0.018 µM
[1]; Table 2, formula (II)
  % inhibition at 10 μM mAChE: n.i.

## CNC(=O)c1ccccc1S(=O)(=O)N(CCOC)CC1CCCN(C2Cc3ccccc3C2)C1 (stereo not drawn)
[2]
  IC50: 3.23 ± 0.492 µM
[1]; Table 2, formula (II)
  % inhibition at 10 μM mAChE: n.i.

## COCCN(CC1CCCN(Cc2ccccc2)C1)S(=O)(=O)c1ccc2ccccc2c1 (stereo not drawn)
[1]; Table 2, formula (II)
  % inhibition at 10 μM mAChE: n.i.

## COCCN(CC1CCCN(Cc2ccc(F)cc2)C1)S(=O)(=O)c1ccc2ccccc2c1 (stereo not drawn)
[2]
  IC50: 0.231 ± 0.006 µM
[1]; Table 2, formula (II)
  % inhibition at 10 μM mAChE: n.i.

## COCCN(CC1CCCN(Cc2cccc(F)c2)C1)S(=O)(=O)c1ccc2ccccc2c1 (stereo not drawn)
[2]
  IC50: 0.0491 ± 0.0012 µM
[1]; Table 2, formula (II)
  % inhibition at 10 μM mAChE: n.i.

## COCCN(CC1CCCN(Cc2ccc(C#N)cc2)C1)S(=O)(=O)c1ccc2ccccc2c1 (stereo not drawn)
[2]
  IC50: 1.46 ± 0.115 µM
[1]; Table 2, formula (II)
  % inhibition at 10 μM mAChE: n.i.

## COCCN(CC1CCCN(Cc2cccc(C#N)c2)C1)S(=O)(=O)c1ccc2ccccc2c1 (stereo not drawn)
[2]
  IC50: 0.338 ± 0.008 µM
[1]; Table 2, formula (II)
  % inhibition at 10 μM mAChE: n.i.

## COCCN(CC1CCCN(Cc2ccc(N(C)C)cc2)C1)S(=O)(=O)c1ccc2ccccc2c1 (stereo not drawn)
[2]
  IC50: 0.311 ± 0.022 µM
[1]; Table 2, formula (II)
  % inhibition at 10 μM mAChE: n.i.

## O=S(=O)(NCC1CCCN(Cc2ccccc2)C1)c1ccc2ccccc2c1 (stereo not drawn)
[1]; Table 2, formula (II)
  % inhibition at 10 μM mAChE: n.i.

## CN(CC1CCCN(Cc2ccccc2)C1)S(=O)(=O)c1ccc2ccccc2c1 (stereo not drawn)
[1]; Table 2, formula (II)
  % inhibition at 10 μM mAChE: n.i.

## CCN(CC1CCCN(Cc2ccccc2)C1)S(=O)(=O)c1ccc2ccccc2c1 (stereo not drawn)
[2]
  IC50: 0.038 ± 0.0026 µM
[1]; Table 2, formula (II)
  % inhibition at 10 μM mAChE: n.i.

## CCCN(CC1CCCN(Cc2ccccc2)C1)S(=O)(=O)c1ccc2ccccc2c1 (stereo not drawn)
[2]
  IC50: 0.0428 ± 0.0064 µM
[1]; Table 2, formula (II)
  % inhibition at 10 μM mAChE: n.i.

## CCCCN(CC1CCCN(Cc2ccccc2)C1)S(=O)(=O)c1ccc2ccccc2c1 (stereo not drawn)
[2]
  IC50: 0.0355 ± 0.0044 µM
[1]; Table 2, formula (II)
  % inhibition at 10 μM mAChE: n.i.

## COCCCN(CC1CCCN(Cc2ccccc2)C1)S(=O)(=O)c1ccc2ccccc2c1 (stereo not drawn)
[1]; Table 2, formula (II)
  % inhibition at 10 μM mAChE: n.i.

## COCCN(CC1CCN(Cc2ccccc2)CC1)S(=O)(=O)c1ccc2ccccc2c1
[1]; Table 2, formula (II)
  % inhibition at 10 μM mAChE: n.i.

## COCCCN(CC1CCN(Cc2ccccc2)CC1)S(=O)(=O)c1ccc2ccccc2c1
[1]; Table 2, formula (II)
  % inhibition at 10 μM mAChE: n.i.

## O=S(=O)(NCC1CCN(Cc2ccccc2)CC1)c1ccc2ccccc2c1
[1]; Table 2, formula (II), substrate ATCI 500 μM, read-out: IC50 ± STD (μM) mAChE
  IC50: 1.78 ± 0.085 µM

## COCCN(CC1CCN(C2Cc3ccccc3C2)CC1)S(=O)(=O)c1ccc2ccccc2c1
[1]; Table 2, formula (II)
  % inhibition at 10 μM mAChE: n.i.

## COCCCN(CC1CCN(C2Cc3ccccc3C2)CC1)S(=O)(=O)c1ccc2ccccc2c1
[1]; Table 2, formula (II)
  % inhibition at 10 μM mAChE: n.i.

## Cc1cccc(CN2CCCC(CNS(=O)(=O)c3ccc4ccccc4c3)C2)c1 (stereo not drawn)
[2]
  IC50: 0.287 ± 0.022 µM
[1]; Table 2, formula (II)
  % inhibition at 10 μM mAChE: 57 ± 3.55%

## O=S(=O)(NCC1CCCN(Cc2ccc(F)cc2)C1)c1ccc2ccccc2c1 (stereo not drawn)
[2]
  IC50: 0.583 ± 0.043 µM
[1]; Table 2, formula (II)
  % inhibition at 10 μM mAChE: 75 ± 4.19%

## Cc1nc(CN2CCCC(CNS(=O)(=O)c3ccc4ccccc4c3)C2)cs1 (stereo not drawn)
[2]
  IC50: 0.366 ± 0.031 µM
[1]; Table 2, formula (II)
  % inhibition at 10 μM mAChE: 71 ± 3.68%

## O=S(=O)(NCC1CCCN(Cc2ccc(F)cc2Cl)C1)c1ccc2ccccc2c1 (stereo not drawn)
[2]
  IC50: 0.347 ± 0.06 µM
[1]; Table 2, formula (II)
  % inhibition at 10 μM mAChE: 73 ± 3.60%

## O=S(=O)(NCC1CCCN(Cc2ccncc2)C1)c1ccc2ccccc2c1 (stereo not drawn)
[2]
  IC50: 1.67 ± 0.256 µM
[1]; Table 2, formula (II)
  % inhibition at 10 μM mAChE: n.i.

## N#Cc1ccc(CN2CCCC(CNS(=O)(=O)c3ccc4ccccc4c3)C2)cc1 (stereo not drawn)
[2]
  IC50: 2.09 ± 0.328 µM
[1]; Table 2, formula (II)
  % inhibition at 10 μM mAChE: n.i.

## CN(CC1CCCN(Cc2ccc(F)cc2)C1)S(=O)(=O)c1ccc2ccccc2c1 (stereo not drawn)
[2]
  IC50: 0.427 ± 0.044 µM
[1]; Table 2, formula (II)
  % inhibition at 10 μM mAChE: n.i.

## COCCN(CC1CCCN(Cc2ccccc2)C1)S(=O)(=O)c1cccc2ccccc12 (stereo not drawn)
[2]
  IC50: 0.059 ± 0.0054 µM
[1]; Table 2, formula (II)
  % inhibition at 10 μM mAChE: n.i.

## COCCN(CC1CCCN(Cc2ccccc2)C1)S(=O)(=O)c1ccc2ccc(OC)cc2c1 (stereo not drawn)
[2]
  IC50: 0.156 ± 0.033 µM
[1]; Table 2, formula (II)
  % inhibition at 10 μM mAChE: n.i.

## COCCCN(CC1CCCN(Cc2ccccc2)C1)S(=O)(=O)c1ccc2ccc(OCC#N)cc2c1 (stereo not drawn)
[2]
  IC50: 0.113 ± 0.008 µM
[1]; Table 2, formula (II)
  % inhibition at 10 μM mAChE: n.i.
